This note sets out measurements from patent US8536332B2, “Modulating signal transduction pathways with substituted pyridol [2,3-b] pyrazines” (Aeterna Zentaris GmbH, priority 2007, dated 2013).

`CCNC(=O)Nc1cnc2ccc(-c3cc(C)c(OC)c(C)c3)nc2n1` [Compound 586, 1-Ethyl-3-[6-(4-methoxy-3,5-dimethyl-phenyl)-pyrido[2,3-b]pyrazin-3-yl]-urea] displayed a melting point of 240 to 241 °C.

With `COc1cc(-c2ccc3ncc(NC(=O)NC(C)(C)CC(C)(C)C)nc3n2)ccc1O` [Compound 613, 1-[6-(4-Hydroxy-3-methoxy-phenyl)-pyrido[2,3-b]pyrazin-3-yl]-3-(1,1,3,3-tetramethyl-butyl)-urea], the melting point was in the range of 232 to 236 °C.

Turning to `CCNC(=O)Nc1ccc2ncc(-c3cccc(Cl)c3Cl)nc2n1` [Compound 108, 1-[3-(2,3-Dichloro-phenyl)-pyrido[2,3-b]pyrazin-6-yl]-3-ethyl-urea], the melting point is above 350 °C.

In turn, `CCNC(=O)Nc1ccc2ncc(-c3cccc(OC)c3OC)nc2n1` [Compound 68, 1-[3-(2,3-Dimethoxy-phenyl)-pyrido[2,3-b]pyrazin-6-yl]-3-ethyl-urea] yielded a melting point of 182 to 185 °C.

In turn, `COc1ccc(-c2ccc3ncc(NC(=O)NC(C)C)nc3n2)cc1OC` [Compound 567, 1-[6-(3,4-Dimethoxy-phenyl)-pyrido[2,3-b]pyrazin-3-yl]-3-isopropyl-urea] came in with a melting point of 233 to 236 °C.

The compound `CCNC(=S)Nc1cnc2ccc(Nc3cccc(CC(=O)O)c3)nc2n1` [Compound 195, {3-[3-(3-Ethyl-thioureido)-pyrido[2,3-b]pyrazin-6-ylamino]-phenyl}-acetic acid] gave a melting point of 248 °C.

The compound `COc1cc(Nc2cnc3ccc(NC(=S)NCc4ccco4)nc3n2)cc(OC)c1OC` [Compound 708, 1-Furan-2-ylmethyl-3-[3-(3,4,5-trimethoxy-phenylamino)-pyrido[2,3-b]pyrazin-6-yl]-thiourea] returned a melting point of 228 °C.

`CCNC(=O)Nc1cnc2ccc(-c3ccc(C(=O)O)c(O)c3)nc2n1` [Compound 644] yielded a melting point of 225 °C.

Turning to `CCNC(=O)Nc1ccc2ncc(-c3cc(C)cc(C)c3)nc2n1` [Compound 82, 1-[3-(3,5-Dimethyl-phenyl)-pyrido[2,3-b]pyrazin-6-yl]-3-ethyl-urea], the melting point is 255.3 to 257.9 °C.

The compound `CCNC(=O)Nc1ccc2ncc(-c3cc(Cl)c(OS(C)(=O)=O)c(OC)c3)nc2n1` [Compound 37, Methanesulfonic acid 2-chloro-4-[6-(3-ethyl-ureido)-pyrido[2,3-b]pyrazin-3-yl]-6-methoxy-phenyl ester] had a melting point of 247 to 249 °C.

As for `CCNC(=O)Nc1ccc2ncc(-c3ccccc3C(F)(F)F)nc2n1` [Compound 97, 1-Ethyl-3-[3-(2-trifluoromethyl-phenyl)-pyrido[2,3-b]pyrazin-6-yl]-urea], the melting point fell in the range of 240 to 243 °C.

The compound `CCNC(=S)Nc1ccc2ncc(Nc3ccc(F)c([N+](=O)[O-])c3)nc2n1` [Compound 489, 1-Ethyl-3-[3-(4-fluoro-3-nitro-phenylamino)-pyrido[2,3-b]pyrazin-6-yl]-thiourea] showed a melting point of 260 °C.

As for `CCNC(=S)Nc1ccc2ncc(-c3cccc(OC(C)C)c3)nc2n1` [Compound 127, 1-Ethyl-3-[3-(3-isopropoxy-phenyl)-pyrido[2,3-b]pyrazin-6-yl]-thiourea], the melting point stood at 227 °C.

`CCNC(=O)Nc1ccc2ncc(-c3ccccc3Cl)nc2n1` [Compound 104, 1-[3-(2-Chloro-phenyl)-pyrido[2,3-b]pyrazin-6-yl]-3-ethyl-urea] returned a melting point of 310 °C.

Compound `CCNC(=O)Nc1ccc2ncc(-c3ccccc3C)nc2n1` [Compound 105, 1-Ethyl-3-(3-o-tolyl-pyrido[2,3-b]pyrazin-6-yl)-urea] came in with a melting point of 218 to 220 °C.

For the compound `COc1cc(-c2ccc3ncc(NC(=O)NC4CCCCC4)nc3n2)ccc1O` [Compound 17, 1-Cyclohexyl-3-[6-(4-hydroxy-3-methoxy-phenyl)-pyrido[2,3-b]pyrazin-3-yl]-urea], the melting point lay in the range of 232 to 235 °C.

`CCNC(=S)Nc1ccc2ncc(-c3ccc(C)cc3)nc2n1` [Compound 124, 1-Ethyl-3-(3-p-tolyl-pyrido[2,3-b]pyrazin-6-yl)-thiourea] gave a melting point of 246 °C.

As to `CCNC(=O)Nc1ccc2ncc(-c3cc(F)ccc3OC)nc2n1` [Compound 93, 1-Ethyl-3-[3-(5-fluoro-2-methoxy-phenyl)-pyrido[2,3-b]pyrazin-6-yl]-urea], the melting point was in the range of 253 to 258 °C.

For `CCCCNC(=O)Nc1cnc2ccc(-c3ccc(O)c(OC)c3)nc2n1` [Compound 631, 1-Butyl-3-[6-(4-hydroxy-3-methoxy-phenyl)-pyrido[2,3-b]pyrazin-3-yl]-urea], the melting point was in the range of 223 to 226 °C.

`COc1cc(-c2ccc3ncc(NC(=O)NCc4ccccc4)nc3n2)ccc1O` [Compound 29, 1-Benzyl-3-[6-(4-hydroxy-3-methoxy-phenyl)-pyrido[2,3-b]pyrazin-3-yl]-urea] gave a melting point of 229 to 231 °C.

Turning to `CCCCCNC(=S)Nc1ccc2ncc(Nc3cc(OC)c(OC)c(OC)c3)nc2n1` [Compound 702, 1-Pentyl-3-[3-(3,4,5-trimethoxy-phenylamino)-pyrido[2,3-b]pyrazin-6-yl]-thiourea], the melting point was 210 °C.

For the compound `CCNC(=O)Nc1ccc2ncc(-c3ccc(C)c(C)c3)nc2n1` [Compound 142, 1-[3-(3,4-Dimethyl-phenyl)-pyrido[2,3-b]pyrazin-6-yl]-3-ethyl-urea], the melting point lay in the range of 247 to 249 °C.

The compound `CCNC(=O)Nc1cnc2ccc(-c3cccc(N)c3)nc2n1` [Compound 179, 1-[6-(3-Amino-phenyl)-pyrido[2,3-b]pyrazin-3-yl]-3-ethyl-urea] had a melting point above 320 °C.

The compound `Cc1cc(-c2ccc3ncc(NC(=O)NCCc4ccccc4)nc3n2)cc(C)c1O` [Compound 588, 1-[6-(4-Hydroxy-3,5-dimethyl-phenyl)-pyrido[2,3-b]pyrazin-3-yl]-3-phenethyl-urea] showed a melting point of 267 to 269 °C.

Consider `CCNC(=O)Nc1ccc2ncc(Nc3ccc(C(=O)N4CCOCC4)cc3)nc2n1` [Compound 48, 1-Ethyl-3-{3-[4-(morpholine-4-carbonyl)-phenylamino]-pyrido[2,3-b]-pyrazin-6-yl}-urea], for which the melting point lay in the range of 276 to 279 °C.

Compound `CCNC(=O)Nc1ccc2ncc(-c3cccc(Br)c3OC(C)C)nc2n1` [Compound 67, 1-[3-(3-Bromo-2-isopropoxy-phenyl)-pyrido[2,3-b]pyrazin-6-yl]-3-ethyl-urea] returned a melting point of 200 to 202 °C.

Compound `CCNC(=O)Nc1cnc2ccc(-c3cc(C(C)(C)C)c(O)c(C(C)(C)C)c3)nc2n1` [Compound 596, 1-[6-(3,5-Di-tert-butyl-4-hydroxy-phenyl)-pyrido[2,3-b]pyrazin-3-yl]-3-ethyl-urea] came in with a melting point of 263 °C.

As to `COc1cc(-c2ccc3ncc(NC(=O)NCCc4ccccc4)nc3n2)ccc1O` [Compound 26, 1-[6-(4-Hydroxy-3-methoxy-phenyl)-pyrido[2,3-b]pyrazin-3-yl]-3-phenethyl-urea], the melting point was 235 to 237 °C.

Compound `CCNC(=O)Nc1ccc2ncc(Nc3cccc(Cl)c3)nc2n1` [Compound 167, 1-[3-(3-Chloro-phenylamino)-pyrido[2,3-b]pyrazin-6-yl]-3-ethyl-urea] gave a melting point of 253 °C.

`CCNC(=S)Nc1ccc2ncc(Nc3cc(OC)cc(OC)c3)nc2n1` [Compound 157, 1-[3-(3,5-Dimethoxy-phenylamino)-pyrido[2,3-b]pyrazin-6-yl]-3-ethyl-thiourea]: the melting point is 265 °C.

As for `CCNC(=O)Nc1ccc2ncc(-c3cccc(C(=O)OCC)c3)nc2n1` [Compound 119, 3-[6-(3-Ethyl-ureido)-pyrido[2,3-b]pyrazin-3-yl]-benzoic acid ethyl ester], the melting point was 222 to 223 °C.

On to `COc1cc(-c2ccc3ncc(NC(=O)Nc4ccc(Cl)cc4)nc3n2)ccc1O` [Compound 529, 1-(4-Chloro-phenyl)-3-[6-(4-hydroxy-3-methoxy-phenyl)-pyrido[2,3-b]pyrazin-3-yl]-urea], for which the melting point is 224 to 226 °C.

The compound `CCNC(=O)Nc1cnc2ccc(-c3ccc(OC)c(OC)c3)nc2n1` [Compound 22, 1-[6-(3,4-Dimethoxy-phenyl)-pyrido[2,3-b]pyrazin-3-yl]-3-ethyl-urea] yielded a melting point above 235 °C.

`CCNC(=S)Nc1ccc2ncc(Nc3cc(Cl)c(Cl)c(Cl)c3)nc2n1` [Compound 465, 1-Ethyl-3-[3-(3,4,5-trichloro-phenylamino)-pyrido[2,3-b]pyrazin-6-yl]-thiourea] gave a melting point of 277 °C.

Consider `CCNC(=S)Nc1cnc2ccc(Cl)nc2n1` [Example 2, 1-(6-Chloro-pyrido[2,3-b]pyrazin-3-yl)-3-ethyl-thiourea], for which the melting point was 215 °C.

`CCNC(=S)Nc1ccc2ncc(Nc3cccc(Cl)c3)nc2n1` [Compound 329, 1-[3-(3-Chloro-phenylamino)-pyrido[2,3-b]pyrazin-6-yl]-3-ethyl-thiourea] had a melting point above 220 °C.

`CCNC(=S)Nc1ccc2ncc(Nc3ccc(C)cc3C)nc2n1` [Compound 399, 1-[3-(2,4-Dimethyl-phenylamino)-pyrido[2,3-b]pyrazin-6-yl]-3-ethyl-thiourea] yielded a melting point of 215 °C.

With `CCNC(=S)Nc1ccc2ncc(Nc3cc(Cl)c(O)c(Cl)c3)nc2n1` [Compound 166, 1-[3-(3,5-Dichloro-4-hydroxy-phenylamino)-pyrido[2,3-b]pyrazin-6-yl]-3-ethyl-thiourea], the melting point turned out to be 278 °C.

`COc1ccc(-c2ccc3ncc(NC(=O)NC4CCCC4)nc3n2)cc1OC` [Compound 576, 1-Cyclopentyl-3-[6-(3,4-dimethoxy-phenyl)-pyrido[2,3-b]pyrazin-3-yl]-urea] returned a melting point of 261 to 264 °C.

In the case of `CCNC(=O)Nc1ccc2ncc(-c3cc(C)cc(Br)c3OC)nc2n1` [Compound 110, 1-[3-(3-Bromo-2-methoxy-5-methyl-phenyl)-pyrido[2,3-b]pyrazin-6-yl]-3-ethyl-urea], the melting point fell in the range of 228 to 230 °C.

On to `O=C(NCCc1ccccc1)Nc1cnc2ccc(-c3cc(Cl)c(O)c(Cl)c3)nc2n1` [Compound 564, 1-[6-(3,5-Dichloro-4-hydroxy-phenyl)-pyrido[2,3-b]pyrazin-3-yl]-3-phenethyl-urea], for which the melting point fell in the range of 280 to 282 °C.
